Our source for the IC50 values is ChEMBL document CHEMBL1158334, “Two new chymotrypsin inhibitors isolated from the Cyanobacterium Microcystis aeruginosa NIES-88” (J Nat Prod, 2005).

A short description of assay [1]: Inhibition of trypsin.
Assay [2] in a line: Inhibition of chymotrypsin.

`CCCC(=O)N[C@@H](Cc1ccc(O)cc1)C(=O)N[C@@H](CCC(=O)N[C@@H]1C(=O)N[C@@H](Cc2ccc(O)cc2)C(=O)N[C@H]2CC[C@@H](O)N(C2=O)[C@@H](C(C)C)C(=O)N(C)[C@@H](Cc2ccccc2)C(=O)N[C@@H]([C@@H](C)CC)C(=O)O[C@@H]1C)C(=O)OC` [MICROPEPTIN 88 F]: the half-inhibitory concentration (IC50) – broadly, the concentration needed to halve the response being measured – in assay [1] was over 100 µM; in assay [2], 3.4 µM.
The corresponding values for `CC(C)CC(NC(=O)[C@H](O)COS(=O)(=O)O)C(=O)N[C@@H]1C(=O)N[C@@H](CCCNC(=N)N)C(=O)N[C@H]2CC[C@@H](O)N(C2=O)[C@@H](CC(C)C)C(=O)N(C)[C@@H](Cc2ccc(O)cc2)C(=O)N[C@@H](C(C)C)C(=O)O[C@@H]1C` (single isomer, unassigned) are 0.001 µM and over 100 µM.
In the case of `CC[C@H](C)[C@@H]1NC(=O)[C@H](Cc2ccc(OC)cc2)N(C)C(=O)[C@H]([C@@H](C)CC)N2C(=O)[C@H](CC[C@H]2O)NC(=O)[C@H](CCc2ccc(O)cc2)NC(=O)[C@@H](NC(=O)[C@H](CCc2ccc(O)cc2)NC(=O)[C@@H](COS(=O)(=O)O)OC)[C@@H](C)OC1=O` [OSCILLAPEPTIN], the IC50 in assay [1] was over 100 µM; in assay [2], 1.9 µM.
The corresponding values for `CCCC(=O)N[C@@H](Cc1ccc(O)cc1)C(=O)N[C@@H](CCC(=O)N[C@@H]1C(=O)N[C@@H](CC(C)C)C(=O)N[C@H]2CC[C@@H](O)N(C2=O)[C@@H](C(C)C)C(=O)N(C)[C@@H](Cc2ccccc2)C(=O)N[C@@H]([C@@H](C)CC)C(=O)O[C@@H]1C)C(=O)O` [MICROPEPTIN 88 E] are over 100 µM and 5 µM.
The corresponding values for `CC[C@H](C)[C@@H]1NC(=O)[C@H](Cc2ccc(O)cc2)N(C)C(=O)[C@H](Cc2ccccc2)N2C(=O)[C@H](CC[C@H]2O)NC(=O)[C@H](Cc2ccccc2)NC(=O)[C@@H](NC(=O)[C@@H](O)COP(=O)(O)O)[C@@H](C)OC1=O` [MICROPEPTIN T 20] are over 100 µM and 2500 µM.
The corresponding values for `CCCCCC(=O)N[C@@H](CC(=O)O)C(=O)N[C@@H]1C(=O)N[C@@H](Cc2ccc(O)cc2)C(=O)N[C@H]2CC[C@@H](O)N(C2=O)[C@@H]([C@@H](C)CC)C(=O)N(C)[C@@H](Cc2ccc(O)cc2)C(=O)N[C@@H](C(C)C)C(=O)O[C@@H]1C` [MICROPEPTIN SD979] are over 100 µM and 2.5 µM.
For the compound `CCCC(=O)N[C@@H](Cc1ccc(O)cc1)C(=O)N[C@@H](CCC(=O)N[C@@H]1C(=O)N[C@@H](CCC(=O)O)C(=O)N[C@H]2CC[C@@H](O)N(C2=O)[C@@H](C(C)C)C(=O)N(C)[C@@H](Cc2ccccc2)C(=O)N[C@@H]([C@@H](C)CC)C(=O)O[C@@H]1C)C(=O)O` [MICROPEPTIN 88 B], the IC50 in assay [1] and in assay [2] was over 100 µM in each case.
Consider `CCCC(=O)N[C@@H](Cc1ccc(O)cc1)C(=O)N[C@@H](CCC(=O)N[C@@H]1C(=O)N[C@@H](C[C@H]2C=C[C@H](O)CC2)C(=O)N[C@H]2CC[C@@H](O)N(C2=O)[C@@H](C(C)C)C(=O)N(C)[C@@H](Cc2ccccc2)C(=O)N[C@@H]([C@@H](C)CC)C(=O)O[C@@H]1C)C(=O)O` [MICROPEPTIN 88 D], for which the IC50 is over 100 µM in assay [1] and 9 µM in assay [2].
The corresponding values for `CC[C@H](C)[C@@H]1NC(=O)[C@H](Cc2ccccc2)N(C)C(=O)[C@H](C(C)C)N2C(=O)[C@H](CC[C@H]2O)NC(=O)[C@H](Cc2ccc(O)cc2)NC(=O)[C@@H](NC(=O)CC[C@H](NC(=O)[C@H](Cc2ccc(O)cc2)NC(C)=O)C(=O)O)[C@@H](C)OC1=O` [MICROPEPTIN 88 Y] are over 100 µM and 1.3 µM.
The corresponding values for `CCCCCCCC(=O)N[C@@H](CCC(=O)O)C(=O)N[C@@H]1C(=O)N[C@@H](CCCCN)C(=O)N[C@H]2CC[C@@H](O)N(C2=O)[C@@H](CC(C)C)C(=O)N(C)[C@@H](Cc2ccc(O)cc2)C(=O)N[C@@H](C(C)C)C(=O)O[C@@H]1C` [MICROPEPTIN A] are 0.07 µM and over 100 µM.
The corresponding values for `CCCC(=O)N[C@@H](Cc1ccc(O)cc1)C(=O)N[C@@H](CCC(=O)N[C@@H]1C(=O)N[C@@H](Cc2ccc(O)cc2)C(=O)N[C@H]2CC[C@@H](O)N(C2=O)[C@@H](C(C)C)C(=O)N(C)[C@@H](Cc2ccccc2)C(=O)N[C@@H]([C@@H](C)CC)C(=O)O[C@@H]1C)C(=O)O` [MICROPEPTIN 88 C] are over 100 µM and 4.6 µM.
For `CCCCCC(=O)N[C@@H](CC(=O)O)C(=O)N[C@@H]1C(=O)N[C@@H](CCCNC(=N)N)C(=O)N[C@H]2CC[C@@H](O)N(C2=O)[C@@H]([C@@H](C)CC)C(=O)N(C)[C@@H](CC(=O)c2ccccc2N)C(=O)N[C@@H](C(C)C)C(=O)O[C@@H]1C` [MICROPEPTIN SD999], the values for the IC50 in assay [1] and in assay [2] were 4 µM and over 100 µM, respectively.
Regarding `CC[C@H](C)[C@H](NC(=O)[C@H](O)Cc1ccc(O)cc1)C(=O)N[C@@H](CCO)C(=O)N[C@@H]1C(=O)N[C@@H](CCO)C(=O)N[C@H]2CC[C@@H](O)N(C2=O)[C@@H](Cc2ccccc2)C(=O)N(C)[C@@H](Cc2ccc(O)cc2)C(=O)N[C@@H](C(C)C)C(=O)O[C@@H]1C` [NOSTOCYCLIN], the half-inhibitory concentration (IC50) in assay [1] and in assay [2] was over 100 µM in each case.
For `CCCCCC(=O)N[C@@H](CC(=O)O)C(=O)N[C@@H]1C(=O)N[C@@H](Cc2ccc(O)cc2)C(=O)N[C@H]2CC[C@@H](O)N(C2=O)[C@@H]([C@@H](C)CC)C(=O)N(C)[C@@H](Cc2c[nH]c3ccccc23)C(=O)N[C@@H](C(C)C)C(=O)O[C@@H]1C` [MICROPEPTIN SD1002], the half-maximal inhibitory concentration (IC50) in assay [1] was over 100 µM; in assay [2], 3.2 µM.
The corresponding values for `CC(C)[C@@H]1NC(=O)[C@H](Cc2ccc(O)cc2)N(C)C(=O)[C@H](Cc2ccccc2)N2C(=O)[C@H](CC[C@H]2O)NC(=O)[C@H](CCCNC(=N)N)NC(=O)[C@@H](NC(=O)[C@@H](O)COS(=O)(=O)O)[C@@H](C)OC1=O` [MICROPEPTIN 90] are 0.02 µM and over 100 µM.
The corresponding values for `CC[C@H](C)[C@@H]1NC(=O)[C@H](Cc2ccc(O)cc2)N(C)C(=O)[C@H]([C@H](C)O)N2C(=O)[C@H](CC[C@H]2O)NC(=O)[C@H](CC(C)C)NC(=O)[C@@H](NC(=O)[C@H](CCC(N)=O)NC(=O)[C@H](CCc2ccc(O)cc2)NC(=O)[C@H](O)CO)[C@@H](C)OC1=O` [OSCILLAPEPTIN G] are over 100 µM and 4 µM.
The corresponding values for `CCCCCC(=O)N[C@@H](CC(=O)O)C(=O)N[C@@H]1C(=O)N[C@@H](CCCCN)C(=O)N[C@H]2CC[C@@H](O)N(C2=O)[C@@H]([C@@H](C)CC)C(=O)N(C)[C@@H](Cc2ccc(O)cc2)C(=O)N[C@@H](C(C)C)C(=O)O[C@@H]1C` [MICROPEPTIN SD944] are 8.5 µM and over 100 µM.
